In patent US20200397675A1, “METHOD FOR IMPROVING SOLUBILITY OF SPARINGLY WATER-SOLUBLE COMPONENT” (ADEKA CORPORATION, priority 2018, published 2020):

Experiment: Investigation of solubility of sparingly water-soluble components in Solutions 1 to 9 (0.1 g additions until turbidity)
Conditions: 25° C.
Description: In addition, confirmation that turbidity or precipitation had not occurred was carried out by adding 0.1 g of the sparingly water-soluble component at a time, stirring for 10 minutes at 25° C. and then leaving to stand. […] Moreover, further tests were not carried out in cases where the solubility exceeded 5 [g/100 g solution].

solubility (Comparative Example 1, Solution 1 (water 100 g)): 0.2 g/100 g solution | solubility (Comparative Example 2, Solution 4 (water 90 g, ethanol 10 g)): 0.3 g/100 g solution | solubility (Comparative Example 3, Solution 5 (water 90 g, propylene glycol 10 g)): 0.3 g/100 g solution | solubility (Comparative Example 4, Solution 6 (water 90 g, dipropylene glycol 10 g)): 0.3 g/100 g solution | solubility (Comparative Example 5, Solution 7 (water 90 g, butylene glycol 10 g)): 0.2 g/100 g solution | solubility (Comparative Example 6, Solution 8 (water 90 g, glycerin 10 g)): 0.2 g/100 g solution | solubility (Example 1, Solution 2 (water 90 g, Compound (1)-1 10 g)): 1.5 g/100 g solution | solubility (Example 2, Solution 3 (water 90 g, Compound (1)-2 10 g)): 2.3 g/100 g solution | solubility (Example 3, Solution 9 (water 80 g, Compound (1)-2 10 g, butylene glycol 10 g)): >5 g/100 g solution
SMILES: CCCCC(CC)COCC(O)CO (stereo not drawn) [2-ethylhexyl glyceryl ether]
